One data set deals with C57BL/6 mice. The experiment in a line: Oral glucose tolerance test (OGTT) in normal C57BL/6 mice. The class given is in vivo. The method, then:
GPR120 agonists have been reported to increase GLP-1 secretion and improve glucose tolerance in vivo [28]. […] Compound 14d was orally administered at doses of 3, 10, 30, and 100 mg/kg, 30 min before the oral glucose challenge at a dose volume of 3 g/kg. Glucose levels were measured from 30 min before glucose challenge to 120 min after the glucose challenge.
Normal male C57BL/6 mice aged 9 weeks were used for the OGTT for compound 14d. C57BL/6 mice were weighed and randomly divided into six groups (eight mice per group) after 12 h of fasting. The test compounds were dissolved in 0.5% MC and vortexed before the study initiation. […] The exact dose volume was calculated separately for each animal. Blood samples were collected via the tail tip 30 min before the compound dose, at t = 0 (immediately before glucose loading), and 15, 30, 60, and 120 min after glucose loading. Blood glucose levels were measured using blood glucose test strips (Sannuo GA-3 type; Changsha, China). Glucose values were entered into an Excel sheet and plotted using GraphPad Prism software.

In the next data set the target is T1, mouse GPR120 (mGPR120) (Mus musculus, UniProt Q7TMA4).
T1 sequence (Q7TMA4 1-361): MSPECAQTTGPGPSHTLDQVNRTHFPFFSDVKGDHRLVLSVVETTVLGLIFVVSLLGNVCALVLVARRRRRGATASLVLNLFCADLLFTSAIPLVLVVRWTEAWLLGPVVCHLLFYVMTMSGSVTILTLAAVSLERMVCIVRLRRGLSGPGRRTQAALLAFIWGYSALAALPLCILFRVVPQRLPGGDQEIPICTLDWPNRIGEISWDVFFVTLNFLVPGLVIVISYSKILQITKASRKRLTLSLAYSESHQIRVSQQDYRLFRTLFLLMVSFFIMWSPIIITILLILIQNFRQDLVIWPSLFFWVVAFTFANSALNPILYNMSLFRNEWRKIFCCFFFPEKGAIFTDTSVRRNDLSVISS
Description: Calcium flux assay in CHO cells expressing mouse GPR120. A general note: Calcium assays in cells follow changes in intracellular calcium, usually with a dye or a luminescent sensor.

The next data set has as its target mouse GPR40 (mGPR40) (Mus musculus, UniProt Q76JU9). The experiment in a line: Calcium flux assay in CHO cells expressing mouse GPR40.
Data set [1] in a line: Pharmacokinetic analysis in C57BL/6 mice. The class given is in vivo. Here is the method: The pharmacokinetic profiles of 10k and 14d were obtained from C57BL/6 mice. […] The pharmacokinetic profiles traces were shown in the Supplementary Materials (Figure S1, see Supporting Materials).
Plasma was collected and precipitated using two volumes of acetonitrile containing an internal standard. This was followed by centrifugation at 15.680 g for 10 min after vortexing for 5 min. The supernatant was diluted with acetonitrile and 10 µL of the supernatant was analyzed by Waters LC-PDA-MS/MS to determine plasma drug levels. Pharmacokinetic parameters were determined using mean data from four mice at each time point. Statistical analysis of the data was performed using the DAS 2.1.1 statistical software program (BioVoice, Shanghai, China).

Another data set has as its system DIO mice. The experiment in a line: Anti-hyperglycemic effects (OGTT, insulin) in DIO mice. The class given is in vivo, C57BL/6 mice. To be noted: 20 mg/kg oral. The method, then:
Blood samples were collected with retro-orbital sinus puncture, and glucose levels were measured in accordance with the OGTT in normal mice. Plasma insulin levels were measured using a mouse insulin RIA kit (Beijing North Institute of Biological Technology, Beijing, China).

The next data set deals with T2, human GPR120 (hGPR120) (Homo sapiens, UniProt Q5NUL3).
T2 sequence (Q5NUL3 1-361): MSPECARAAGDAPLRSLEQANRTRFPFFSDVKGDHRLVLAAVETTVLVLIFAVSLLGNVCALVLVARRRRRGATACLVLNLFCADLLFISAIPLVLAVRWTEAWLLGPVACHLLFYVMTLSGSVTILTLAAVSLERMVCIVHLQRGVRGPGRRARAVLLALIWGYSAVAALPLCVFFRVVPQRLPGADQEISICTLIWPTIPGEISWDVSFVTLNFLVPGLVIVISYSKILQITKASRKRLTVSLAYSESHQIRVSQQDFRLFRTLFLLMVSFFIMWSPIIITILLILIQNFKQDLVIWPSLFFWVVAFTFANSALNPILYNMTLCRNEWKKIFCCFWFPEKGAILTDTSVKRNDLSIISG
Description: Calcium flux assay in hGPR120-transfected CHO cells.

Where [2] appears, read: mGPR120, concentration response curve.
Where [3] appears, read: hGPR120, concentration response curve.

Molecules are shown by their SMILES. Where two headings read alike, the source gives them in different places.

As usually defined, the melting point is the temperature of the solid-liquid transition. As a reminder, the EC50 is the concentration at which the effect is half-maximal. By Hill slope is commonly meant the slope factor of the fitted curve. By Tmax is commonly meant the time from dosing to the highest level. By Cmax is commonly meant the highest concentration seen after dosing. In general, AUC refers to the area under the concentration-time curve, a measure of exposure. Low readings indicate less exposure, high ones more exposure.

mouse GPR40 (mGPR40), sequence (Q76JU9 whole entry): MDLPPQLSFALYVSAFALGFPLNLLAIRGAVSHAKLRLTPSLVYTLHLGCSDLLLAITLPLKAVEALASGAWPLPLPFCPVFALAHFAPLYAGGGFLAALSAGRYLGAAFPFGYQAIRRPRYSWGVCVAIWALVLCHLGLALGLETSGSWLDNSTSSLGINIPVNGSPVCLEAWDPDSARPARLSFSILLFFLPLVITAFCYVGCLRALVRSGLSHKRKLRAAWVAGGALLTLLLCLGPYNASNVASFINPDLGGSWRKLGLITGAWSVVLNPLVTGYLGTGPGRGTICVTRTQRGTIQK
Description for human GPR120 (hGPR120): (§1) A calcium flux assay was performed to assess the agonist activity of the test compounds against the hGPR120 (mGPR120) and hGPR40 (mGPR40) receptors. […] The medium in the wells was gently discarded, and the wells were washed with Hank’s balanced salt solution (HBSS; 100 μL per well). […] The cells were then washed thrice in HBSS and allowed to equilibrate for 10 min before conducting the assay. Test compounds dissolved in dimethyl sulfoxide were diluted in HBSS at various concentrations and added to Fluo-4 AM-containing cells, and intracellular Ca^2+ concentrations were measured using FlexStation3 Molecular Devices. The EC50 value of each compound was calculated using GraphPad Prism software (version 5.0; GraphPad Software, San Diego, CA, USA).
Description for mouse GPR120 (mGPR120): as §1
Description for mouse GPR40 (mGPR40): as §1

`O=C(O)CCCOc1ccc(COc2cc(F)ccc2-c2ccc(F)cc2)cc1F` [Compound 14d, 4-(4-(((4,4′-difluoro-[1,1′-biphenyl]-2-yl)oxy)methyl)-2-fluorophenoxy)butanoic acid] registered a melting point of 89 to 91 °C. The “blood glucose in OGTT” value in the data set on C57BL/6 mice (30 mg/kg oral, glucose 3 g/kg, superior to TUG-891) is “significant reduction in blood glucose”. Also, in the data set on C57BL/6 mice (3, 10, 30, 100 mg/kg oral), the “dose dependence of glucose lowering and glucose AUC” value is on record as “dose-dependent”. In the data set on C57BL/6 mice (OGTT, 30 mg/kg oral, after 120 min, compared with glucose alone, p < 0.001), the “reduction of plasma glucose AUC” value turned out to be 25%. Further, in the data set with C57BL/6 mice (normal C57BL/6 mice, during the experiment), the “hypoglycemia during OGTT” value was “no hypoglycemia was observed”. Also, the hypoglycemic side effects result in the data set on C57BL/6 mice (normal mice, even at a dose of 100 mg/kg) was “no hypoglycemic side effects were detected”. The 50% effective concentration (EC50) on mouse GPR120 (mGPR120) worked out at 83.2 nM. On mouse GPR120 (mGPR120) (setting [2]), the Hill slope stood at 0.7745 and the “Hill slope (95%CI)” value is recorded as 0.5397-1.0090. Further, the Selectivity at mouse GPR120 (mGPR120) (mGPR120 over mGPR40) is reported as 152.6. The EC50 at mouse GPR40 (mGPR40) was determined as 12700 nM. Moreover, the “metabolic stability in vivo” value in data set [1] (C57BL/6 mice, pharmacokinetics, in words) is “excellent metabolic stability”. For the same compound, the time of peak concentration (Tmax) in data set [1] (male, mouse, plasma, po, C57BL/6 mice, 10 mg/kg gavage) was 0.5 h. For the same compound, in data set [1] (male, mouse, plasma, po, C57BL/6 mice, 10 mg/kg gavage, 0.5% MC, mean ± SD of four mice), the Cmax came out at 2650 ± 288 ng/mL. Moreover, the AUC in data set [1] (male, mouse, plasma, po, C57BL/6 mice, 10 mg/kg gavage, mean ± SD of four mice) is 5900 ± 584 ng·h/mL. Besides, the half-life in data set [1] (male, mouse, plasma, po, C57BL/6 mice, 10 mg/kg gavage, mean ± SD of four mice, read-out: t1/2 (converted)) is 1.6 ± 0.4 h. In addition, in data set [1] (rodents, in words), the clearance result was “low clearance” and the half-life entry was “long half-life”. In addition, the “insulin levels 30 min after the glucose challenge” value in the data set on DIO mice (compared to vehicle-treated mice) was “significantly increased insulin levels”. Moreover, the “glucose AUC0–120 min” value in the data set on DIO mice (glucose 2 g/kg) was “significantly lower than that of vehicle-treated mice”. The concentration for a half-maximal effect (EC50) at human GPR120 (hGPR120) is 37.5 nM. On human GPR120 (hGPR120) (setting [3]), the Hill slope is given as 0.9540 and the “Hill slope (95%CI)” value is listed as 0.8259-1.0820. For the same compound, the “Agonist type from dose-dependent curves” value at human GPR120 (hGPR120) (hGPR120 and mGPR120) is “full agonist”.
